Reference: patent publication US20050043361A1, “MitoNEET polypeptide from mitochondrial membranes, modulators thereof, and methods of using the same” (priority 2002, published 2005)
Entries after “also recorded” stand apart in the source; their conditions may differ. One block for each molecule: values may come before it.

Assays:
mitoNEET [1] = target: T1, mitoNEET (Rattus norvegicus, UniProt B0K020); assay: Photoaffinity crosslinking of 125I-labelled thiazolidinedione probe to rat liver mitochondria, with or without competing thiazolidinedione; assay type: binding
T1 construct: newly prepared crude rat liver mitochondria; from tissue; host or cells: rat liver mitochondria (Sprague-Dawley rats)
T1 sequence (B0K020 1-108): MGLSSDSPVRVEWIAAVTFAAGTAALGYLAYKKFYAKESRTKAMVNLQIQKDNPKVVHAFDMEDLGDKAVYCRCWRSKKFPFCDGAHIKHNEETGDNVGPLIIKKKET
Protocol: FIG. 1. A representative 10-20% SDS-PAGE gel (Coomassie stain, left panel) and autoradiogram (right panel). Crosslinking with ^125I-PNU-1010174 was conducted in rat liver mitochondria in the absence (−) or presence of 25 μM (+) of ([6-(2-{4-[(2,4-dioxo-1,3-thiazolidin-5-yl)methyl]phenoxy}ethyl)pyridin-3-yl]acetic acid) (TZD) as described in Example 1. Lanes 1 and 2 are from the rinsed mitochondrial pellet, lanes 3 and 4 represent the same incubations solubilized with 1% Triton X 114, and lanes 5 and 6 are the ammonium sulfate (AS) precipitation of the Triton X 114 soluble material.
FIG. 2. The ammonium sulfate pellets of Triton X 114—soluble mitoNEET from 14 separate incubations conducted with or without competitor were resuspended in a total volume of 200 μl and subjected to HPLC as described in Example 4. Representative data for the minus competitor condition is shown. […] The ^125I, profile from the in-line gamma detector is shown in the lower right panel. The left hand panels show the silver-stained gel (upper left) and corresponding autoradiogram (lower left) of the relevant fractions. Data are shown for a representative rat liver mitochondrial preparation. The ^125I-crosslinked mitoNEET seen in fraction 31 was not present in the preparations crosslinked in the combined presence of ([6-(2-{4-[(2,4-dioxo-1,3-thiazolidin-5-yl)methyl]phenoxy}ethyl)pyridin-3-yl]acetic acid) (not shown). […]

mitoNEET [2] = target: T2, mitoNEET (Bos taurus, UniProt Q3ZBU2); assay: Photoaffinity crosslinking of 125I-labelled thiazolidinedione probe to bovine brain mitochondrial fractions (B3/B4); assay type: binding; conditions: stored, frozen bovine brain mitochondrial fractions (B3/B4); UV crosslinking
T2 construct: from tissue; host or cells: steer brain, sucrose-density mitochondrial fractions B3/B4
T2 sequence (Q3ZBU2 2-106 limits assumed): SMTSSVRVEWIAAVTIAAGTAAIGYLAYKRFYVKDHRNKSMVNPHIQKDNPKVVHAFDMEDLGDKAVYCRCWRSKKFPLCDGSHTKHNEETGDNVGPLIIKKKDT
Protocol: Bovine brain mitochondria were harvested from bovine brains. This procedure involved dissection of steer brains freshly obtained from a local packinghouse. The rinsed brains were homogenized in fractionation buffer (250 mM sucrose, 50 mM Tris, pH=8.0, containing 1 μg/ml pepstatin A, 5 μg/ml leupeptin, 10 μg/ml bacitracin, and 0.1 mM PMSF). Following removal of nuclei at 5000 rpm in a Beckman Ti50, the mitochondrial pellet was harvested at 20,000×g (12,500 rpm in a Beckman Ti50 rotor) and further enriched by sucrose density centrifugation. Membrane fractions were collected from top of the 1.18 and 1.20 density bands, re-suspended in 50 mM Tris, and collected by centrifugation. The factions (“B3/B4”) were stored at −80° C. until use.
Crosslinking reactions were carried out in a final volume of 200 μl, containing 100 μl membranes, 50 μl 4% DMSO with or without competing thiazolidinedione (usually 100 μM ([6-(2-{4-[(2,4-dioxo-1,3-thiazolidin-5-yl)methyl]phenoxy}ethyl)pyridin-3-yl]acetic acid), 25 μM final concentration), and 50 μl carrier-free ^125I-4-azido-N-[2-({[6-(2-{4-[(2,4-dioxo-1,3-thiazolidin-5-yl)methyl]phenoxy}ethyl)pyridin-3-yl]acetyl}amino)ethyl]-2-hydroxybenzamide (0.1-0.2 μCi/tube). […]

fatty acid oxidation = assay: Oxidation of palmitoyl CoA by solubilized mitochondria with and without synthetic mitoNEET (HPLC); assay type: biochemical; conditions: excess synthetic mitoNEET; solubilized mitochondrial preparations; CoASH, NAD, FAD, 1 mM palmitoyl CoA
Protocol: FIG. 10. Oxidation of palmitoyl CoA was measured by solubilized mitochondria with and without the addition of synthetic mitoNEET. Reactions were conducted in the presence of CoASH, NAD, FAD, and 1 mM palmitoyl CoA. Remaining palmitoyl CoA at various time points after incubation is shown in the absence (closed circles) and presence of excess synthetic mitoNEET peptide 11A (closed squares). There was no loss of substrate in the absence of mitochondrial membranes (open triangles). Substrate and generated CoA products were measured by HPLC.
Full-length mitoNEET synthesized as in Example 6 was extended to contain a N-terminal biotin. […] A number of these proteins have been identified and are know to be involved in fatty acid oxidation. […] Modulation of mitoNEET function would be expected to increase fatty acid oxidation. Such an approach to find useful modulators as described herein may be taken with synthetic peptide or membranes containing endogenous or overexpressed mitoNEET.

Molecule: O=C(O)Cc1ccc(CCOc2ccc(CC3SC(=O)NC3=O)cc2)nc1 (stereo not shown) [[6-(2-{4-[(2,4-dioxo-1,3-thiazolidin-5-yl)methyl]phenoxy}ethyl)pyridin-3-yl]acetic acid]
- 125I-crosslinked mitoNEET peak (HPLC) in presence of competitor (mitoNEET [1]; competitor 25 μM final concentration, HPLC with in-line gamma detector, fraction 31, identical results with bovine brain fractions): lacked this peak; also recorded: not present

- labeling of mitoNEET by crosslinking (mitoNEET [1]; newly prepared crude rat liver mitochondria, UV crosslinking, carrier-free probe 0.1-0.2 μCi/tube): labeling of the mitoNEET
- labeling of mitoNEET by crosslinking (mitoNEET [2]): labeling of the mitoNEET
Molecule: [N-]=[N+]=Nc1cc(O)c(C(=O)NCCNC(=O)Cc2ccc(CCOc3ccc(CC4SC(=O)NC4=O)cc3)nc2)cc1[125I] (stereo not shown)

B1: synthetic mitoNEET: Full-length mitoNEET polypeptide made by peptide synthesis (peptide, UniProt Q9NZ45 1-108, looked up)
chain: MSLTSSSSVRVEWIAAVTIAAGTAAIGYLAYKRFYVKDHRNKAMINLHIQKDNPKIVHAFDMEDLGDKAVYCRCWRSKKFPFCDGAHTKHNEETGDNVGPLIIKKKET
modifications: full-length chemically synthesized
notes: Full-length mitoNEET polypeptide made by peptide synthesis
- effect on fatty acid oxidation (remaining palmitoyl CoA) (fatty acid oxidation): inhibits fatty acid oxidation
